Results from US20190119193A1, “COMPOSITION FOR REGULATING PLANT GROWTH, METHOD FOR TREATING PLANTS THEREWITH, AND ACTIVE INGREDIENT THEREOF” (Ivan Aleksandrovich Starikov, priority 2016, published 2019).

Test system: spring wheat of “Lubava” variety
Experiment: Field tests of DMOA and DEOA on wheat
Format: in vivo
Conditions: for Effect on wheat growth, yield and quality (in words): aqueous solutions in the proposed concentrations, field test under stress (abundant rainfalls)
Description: After that DMOA and DEOA were separately dissolved in dimethyl sulfoxide to give solutions of 10 g/L concentration, then water was added to give aqueous solutions of DMOA with the concentrations of 5.5·10^−8 M, 5.5·10^−9 M, 1.8·10^−9 M, 5.5·10^−10 M, 1.8·10^−10 M, 1.8·10^−11 M, and DEOA with the concentrations of 4.8·10^−8 M, 4.8·10^−9 M, […], 4.8·10^−10 M, 1.6·10^−10 M, 1.6·10^−11 M.
The field tests of the obtained aqueous solutions of DMOA and DEOA on spring wheat of “Lubava” variety were carried out. The tests were carried out in agroclimatic zone I, on the experimental field of the Grain Crops Protection Systems Laboratory of the Agricultural Research Center of Federal State Budgetary Scientific Institution “Moscow Research Institute of Agriculture” “Nemchinovka” “(Moscow Region, Odintsovo district, settlement Novoivanovskaya, 2015) according to the method adopted for registration tests of plant growth regulators (Guidelines for conducting registration tests of new forms of fertilizers, bioregulators and plant regulators. Moscow-Vladimir, 2009, p. 104; The method of state variety testing of agricultural crops. Grain, cereal, grain legumes and forage crops. Issue 1, Moscow, 1985, page 269, Issue 2, Moscow, 1989, p. 194; OST 10-108-87; GOST 26212-91; GOST-91).
The soil of the experimental field is sod-podzolic on clay loam mantle.
Tests were conducted starting from Apr. 29 to Jul. 30, 2015. In the first half of the growing period the weather conditions were unfavorable (abundant rainfalls in May and June), which is a significant stress factor.
Control test—without growth regulators treatment.
Area of experimental plots—100 m^2, accounting area—50 m^2. Fourfold replication of the experiments.
Preceding crop was winter wheat. Immediately after the autumn harvesting of winter crops the area was treated with disc harrow to a depth of 10-12 cm. Then, fall plowing to a depth of 18-20 cm by a reverse plow, harrowing, and moisture conservation were carried out.
Before seeding the test crop, the soil was fertilized with nitrogen-phosphorus-potassium fertilizer in a dose of N64P64K64. Date of sowing: Apr. 29, 2015 Seeding rate: 5.0 million of germinated grains per 1 hectare.
Before seeding, all the seeds were treated with “Vincite Forte” fungicide with a consumption rate of 1.0 L per ton of seeds, as well as the aqueous solution of DMOA or DEOA selected for the experiment with a consumption rate of 10 L per ton of seeds (this aqueous solution was directly used as a liquid for treatment) or without a growth regulator, depending on the experiment. The following concentrations of the test solutions were used for treatment: 5.5·10^−8 M, 5.5·10^−9 M and 5.5·10^−10 M of DMOA; 4.8·10^−8 M, 4.8·10^−9 M and 4.8·10^−10 M of DEOA.
At the tillering phase (May 23) the crops were sprayed against weeds with “Linthur” herbicide at a dose of 175.0 g/ha, pesticides “BI-58 Novy” were used against pests at a dose of 0.5 L/ha, and against the leaf-stems diseases the crops were sprayed at the early ear emergence stage (June 20) with “Alto Super” fungicide at a dose of 0.5 L/ha together with aqueous solutions of DMOA or DEOA (or without them). Spraying with aqueous solutions of DMOA or DEOA allows to additionally stimulate plant growth. In this case the dosage of aqueous solutions of DMEA or DEOA was 300 L/ha (these solutions were sprayed directly). Spraying with aqueous solutions of DMEA and DEOA was carried out for all variants, where DMOA and DEOA were used for seed treatment. The concentration of the spraying solution was one-thirtieth of the concentration of the solution previously used for treatment of seeds. Accordingly, for DMOA: 1.8·10^−9 M, 1.8·10^−10 M, 1.8·10^−11 M; and for DEOA: 1.6·10^−9 M, 1.6·10^−10 M, 1.6·10^−11 M.
Harvesting of experimental plots was carried out on July 30, before harvesting test sheaves of 0.25 m^2 of each variant of the experiment were taken for structural analysis. […]

[1] = seeds treated 4.8 · 10^−8M, sprayed 1.6·10^−9 M
[2] = seeds treated 4.8 · 10^−9M, sprayed 1.6·10^−10 M
[3] = seeds treated 4.8 · 10^−10M, sprayed 1.6·10^−11 M
[4] = seeds treated 5.5 · 10^−8M, sprayed 1.8·10^−9 M
[5] = seeds treated 5.5 · 10^−9M, sprayed 1.8·10^−10 M
[6] = seeds treated 5.5 · 10^−10M, sprayed 1.8·10^−11 M

CCOC(=O)C=C([O-])C(=O)OCC.[Na+] [DEOA, sodium salt of diethyl ester of oxaloacetic acid]
Effect on wheat growth, yield and quality (in words): express ability to stimulate growth, increase yield and quality of wheat
1000 grains weight [1]: 48.15 g
Gluten [1]: 31.85 % dry basis
Main head length [1]: 8.6 cm
Number of grains from main head [1]: 39 pcs
Number of stems [1]: 612 pcs/m^2
Plant height [1]: 101.7 cm
Productive tilling capacity [1]: 1.34
Protein (N 5.7) [1]: 14.88 % dry basis
Starch [1]: 61.15 % dry basis
Weight of grains from main head [1]: 1.91 g
Yield [1]: 5.50 t/ha
Yield, % (comparing to control) [1]: 112.7%
1000 grains weight [2]: 46.88 g
Gluten [2]: 32.91 % dry basis
Main head length [2]: 9.2 cm
Number of grains from main head [2]: 41 pcs
Number of stems [2]: 408 pcs/m^2
Plant height [2]: 99.4 cm
Productive tilling capacity [2]: 1.33
Protein (N 5.7) [2]: 14.95 % dry basis
Starch [2]: 61.43 % dry basis
Weight of grains from main head [2]: 1.96 g
Yield [2]: 5.32 t/ha
Yield, % (comparing to control) [2]: 109.0%
1000 grains weight [3]: 48.38 g
Gluten [3]: 31.61 % dry basis
Main head length [3]: 10.8 cm
Number of grains from main head [3]: 51 pcs
Number of stems [3]: 324 pcs/m^2
Plant height [3]: 104.3 cm
Productive tilling capacity [3]: 1.69
Protein (N 5.7) [3]: 14.14 % dry basis
Starch [3]: 61.60 % dry basis
Weight of grains from main head [3]: 2.65 g
Yield [3]: 5.00 t/ha
Yield, % (comparing to control) [3]: 102.5%

Sodium salt of dimethyl ester of oxaloacetic acid [DMOA]
Effect on wheat growth, yield and quality (in words): express ability to stimulate growth, increase yield and quality of wheat
1000 grains weight [4]: 46.22 g
Gluten [4]: 33.64 % dry basis
Main head length [4]: 8.7 cm
Number of grains from main head [4]: 36 pcs
Number of stems [4]: 420 pcs/m^2
Plant height [4]: 101.5 cm
Productive tilling capacity [4]: 1.57
Protein (N 5.7) [4]: 14.88 % dry basis
Starch [4]: 61.54 % dry basis
Weight of grains from main head [4]: 1.76 g
Yield [4]: 6.44 t/ha
Yield, % (comparing to control) [4]: 131.9%
1000 grains weight [5]: 47.07 g
Gluten [5]: 34.71 % dry basis
Main head length [5]: 8.9 cm
Number of grains from main head [5]: 37 pcs
Number of stems [5]: 752 pcs/m^2
Plant height [5]: 105.1 cm
Productive tilling capacity [5]: 1.21
Protein (N 5.7) [5]: 14.92 % dry basis
Starch [5]: 61.72 % dry basis
Weight of grains from main head [5]: 1.79 g
Yield [5]: 6.49 t/ha
Yield, % (comparing to control) [5]: 133.0%
1000 grains weight [6]: 46.51 g
Gluten [6]: 33.81 % dry basis
Main head length [6]: 8.8 cm
Number of grains from main head [6]: 37 pcs
Number of stems [6]: 396 pcs/m^2
Plant height [6]: 104.1 cm
Productive tilling capacity [6]: 1.48
Protein (N 5.7) [6]: 14.73 % dry basis
Starch [6]: 61.27 % dry basis
Weight of grains from main head [6]: 1.71 g
Yield [6]: 6.41 t/ha
Yield, % (comparing to control) [6]: 131.4%
